{"source": "paper PMC11643612", "about": "“Insights into the Metabolism, Disposition, and Quantitative Profile of mGlu5 NAM AE90015 with Metabolite Identification and a Novel Integration Method” (Molecules, 2024)", "key": {"[1]": {"assay": "in vivo rat oral dose study: metabolism, excretion and disposition (plasma, tissues, urine, bile; UV/mass integration)", "method": "The in vivo rat studies were performed following the administration of a 30 mg/kg dose of AE90015. Plasma, urine, and tissue samples were collected from two rats in a metabolic cage, and bile samples were collected from two bile duct-cannulated rats. The urine and bile samples were collected from 0 to 24 h post-administration. The tissues and plasma samples were collected at 24 h post-administration. This study was carried out to explore all metabolites, particularly the phase II metabolites, and to identify the metabolites being excreted and understand their excretion pathways. Additionally, determining whether AE90015 itself is directly cleared through urine and bile is crucial for explaining its pharmacokinetic clearance value in rats.\nFor quantification, a photodiode array detector connected to UPLC in parallel to the LTQ-Obitrap mass spectrometer, detecting at 260 nm absorption, and combined with mass response was used to quantitatively measure, sometimes with compromised accuracy, the metabolites and AE90015 in all of the samples. For well-separated metabolites in the liquid chromatogram, their UV 260 nm absorption peak integration represented their molar response. When the metabolites’ UV peaks overlap with each other, UV integration is not feasible, but the integration of extracted metabolite mass is much easier. […] It was assumed that each metabolite’s UV integration-to-mass integration ratio is equal, allowing for a good approximation within the same category of metabolites. This assumption was validated by many of the metabolites measured in this study and previous studies. When no UV integration is available, multiplying the mass integration by the […] yielded in the UV integration.\nThe distribution of normalized integration values for the parent drug AE90015 and its metabolites in plasma, urine, bile, and tissues, including liver, brain, and kidney, is summarized in Table 1. […] In this experiment, all amounts of AE90015 and its metabolites in the plasma, urine, and bile samples were obtained from UV responses, which were adjusted to their total volume in the rat. For the liver, brain, and kidney tissues, these amounts were normalized to tissue weight. The sample dilution factors used in the analysis were also converted back.\nThe values in Table 1 represent the relative molar amounts of each metabolite of AE90015 remaining in the plasma and tissues or excreted in urine or bile 24 h post-dose. These values were derived either directly from UV 260 nm integration or from mass response integration, multiplied by the UV/mass ratio for each metabolite category, and further adjusted to plasma, urine volume, or tissue weight. The details of the calculation methods are provided in Section 3.\nTwo rats weighing 0.266 and 0.252 kg received 30 mg/kg oral doses of AE90015, formulated with hydroxypropyl-beta-cyclodextrin, for the bile collection study, which was carried out for 0–24 h, and a total of 33.6 mL of bile was pooled together from the 2 rats. The two rats used for the bile collection study underwent bile duct cannulation surgery 2 days before the AE90015 dosing and bile collection. Before the surgery, the rats were anesthetized with ketamine (43 mg/kg body weight) and xylazine (8.7 mg/kg body weight). After surgical skin preparation, two catheters (intestinal and biliary) were passed subcutaneously from the dorsal scapular region into the abdomen. Through ventral midline abdominal incision, the bile duct was isolated and ligated, and the biliary catheter was inserted into the bile duct and secured. The intestinal catheter tip was placed into the duodenum just distal to the entry point of the bile duct and secured by the placement of a purse string suture. […]"}, "human mGlu5 receptor": {"system": "human mGlu5 receptor", "set-up": "method as in PMID 34469715", "settings": "NAM; cited from earlier work"}, "mGlu7": {"system": "mGlu7", "settings": "cited from earlier work"}, "mGlu3": {"system": "mGlu3", "settings": "cited from earlier work"}, "mGlu4": {"system": "mGlu4", "settings": "cited from earlier work"}, "mGlu2": {"system": "mGlu2", "settings": "cited from earlier work"}, "mGlu1": {"system": "mGlu1", "settings": "cited from earlier work"}, "[2]": {"assay": "rat PK, in-house experiment", "settings": "in vivo"}, "79 other targets": {"system": "79 other targets", "settings": "cited from earlier work"}, "[3]": {"settings": "rats (n = 2), 24 h after 30 mg/kg oral, % of all AE90015-related material"}}, "data": [{"smiles": "Cc1cncc(C(=O)NC23CC4CC(CC(NC(=O)c5ccccn5)(C4)C2)C3)n1", "note": "[AE90015]", "values": [{"measurement": "Excrete from Bile, normalized relative molar amount", "setting": "[1]; bile duct-cannulated rats (n = 2), bile 0-24 h after 30 mg/kg oral, % of all AE90015-related material", "result": 0.39, "unit": "%"}, {"measurement": "share of total clearance by mono-oxidation (primary clearance pathway)", "setting": "[1]; rat, 30 mg/kg oral, 24 h", "result": 96, "unit": "%"}, {"measurement": "direct excretion via renal and bile routes", "setting": "[1]; rat, 30 mg/kg oral, 24 h, unchanged parent", "result": 0.5, "unit": "%"}, {"measurement": "Remain in Brain, normalized relative molar amount", "setting": "[1]; [3]", "result": 0.66, "unit": "%"}, {"measurement": "Remain in Kidney, normalized relative molar amount", "setting": "[1]; [3]", "result": 0.16, "unit": "%"}, {"measurement": "Remain in Liver, normalized relative molar amount", "setting": "[1]; [3]", "result": 0.98, "unit": "%"}, {"measurement": "Remain in Plasma, normalized relative molar amount", "setting": "[1]; [3]", "result": 1.47, "unit": "%"}, {"measurement": "Excrete from Urine, normalized relative molar amount", "setting": "[1]; rats (n = 2), urine 0-24 h after 30 mg/kg oral, % of all AE90015-related material", "result": 0.10, "unit": "%"}, {"measurement": "affinity", "setting": "human mGlu5 receptor", "result": 18.5, "unit": "nM"}, {"measurement": "efficacy or affinity for mGlu7", "setting": "mGlu7", "result": "no significant efficacy or affinity"}, {"measurement": "efficacy or affinity for mGlu3", "setting": "mGlu3", "result": "no significant efficacy or affinity"}, {"measurement": "efficacy or affinity for mGlu4", "setting": "mGlu4", "result": "no significant efficacy or affinity"}, {"measurement": "efficacy or affinity for mGlu2", "setting": "mGlu2", "result": "no significant efficacy or affinity"}, {"measurement": "efficacy or affinity for mGlu1", "setting": "mGlu1", "result": "no significant efficacy or affinity"}, {"measurement": "clearance", "setting": "[2]", "result": 38, "unit": "mL/min/kg"}, {"measurement": "selectivity for mGlu5, preference compared to the 79 other targets tested", "setting": "79 other targets", "result": "over 1000 fold"}]}]}
